Results on 3 compounds are retold here after patent US9684238B2, “Fluorene-type compound, photopolymerization initiator comprising said fluorene-type compound, and photosensitive composition containing said photopolymerization initiator” (TOKYO OHKA KOGYO CO., LTD., priority 2012, dated 2017).

Data set [1] is described as follows: Absorption coefficient (absorbance of 0.001% solution in tetrahydrofuran). The class given is physicochemical. The settings on record: for Λ max (absorption maximum wavelength): 0.001% (wt/vol) in tetrahydrofuran, from 280 nm to 400 nm; for Absorption coefficient at 365 nm / Absorption coefficient at Λ max: 0.001% (wt/vol) solution in tetrahydrofuran. As for the experimental part:
A 0.001% (wt/vol) solution of each of the compounds 1, 2, 4, 6, 8, 9, 11, 12, 13, 15, 16, D-1, D-3, D-4, D-7, D-8, D-9, D-12, D-14, D-15, D-20, C-1, and C-2 in tetrahydrofuran was prepared, and its absorbance was measured with a spectrophotometer (manufactured by Hitachi High-Technologies Corporation, trade name: “U-3900H”). An absorption maximum wavelength (Amax) at a wavelength of from 280 nm to 400 nm was read from an absorption spectrum obtained with the spectrophotometer.

Data set [2] is described as follows: Decomposition point by thermal analysis (TG-DTA). The class given is physicochemical. The settings on record: 5.0 mg. The method, then:
The compounds 1, 2, 4, 6, 8, 9, 11, 12, 13, 15, 16, D-1, D-3, D-4, D-7, D-8, D-9, D-12, D-14, D-15, D-20, C-1, and C-2 were each subjected to measurement with a thermal analysis apparatus (TG-DTA) (manufactured by Rigaku Corporation, trade name: “Thermo Plus EVO TG 8120”) by using 5.0 mg thereof.

Data set [3] in a line: Solubility in PGME, PGMEA and ethyl lactate. The data set is classed as physicochemical. The settings on record: room temperature; for Solubility Ethyl lactate: in 100 parts by weight of ethyl lactate; for Solubility PGMEA: in 100 parts by weight of propylene glycol monomethyl ether acetate; for Solubility PGME: in 100 parts by weight of propylene glycol monomethyl ether. As for the experimental part: An evaluation for solubility was performed in accordance with the following evaluation criteria based on the dissolution amount.
A: 10 Parts by weight or more of the photopolymerization initiator is dissolved.
B: An amount in the range of from 5 parts by weight or more to less than 10 parts by weight of the photopolymerization initiator is dissolved.
C: An amount in the range of from 2 parts by weight or more to less than 5 parts by weight of the photopolymerization initiator is dissolved.
D: Less than 2 parts by weight of the photopolymerization initiator is dissolved.

Data set [4] can be described thus: Evaluation 1: 20-μm pattern line width of transparent photosensitive composition. To be noted: for 20-μm pattern line width: transparent composition, initiator 0.4 mmol. The method, then:
After that, the mixture was filtered with a membrane filter having an aperture of 5 μm to provide a photosensitive composition.
It should be noted that the fluorene-based compound as a photopolymerization initiator was used in such an amount that its molar quantity was kept constant in the respective examples and comparative examples.
The glass substrate after the application was dried with a fan dryer at 90° C. for 10 minutes. Thus, a coating film (photosensitive layer) was formed. Next, the film was exposed to light having an exposure energy quantity of 5 mJ/cm^2, 10 mJ/cm^2, 20 mJ/cm^2, 40 mJ/cm^2, 60 mJ/cm^2, or 80 mJ/cm^2 by using a high-pressure mercury lamp (manufactured by Karl Suss, trade name: “MASK ALIGNER”) through a negative mask (mask width: 20 μm). Next, the resultant was immersed in a 0.1 wt % aqueous solution of tetramethylammonium hydroxide (TMAH) and then rinsed with pure water. The remaining cured film was subjected to the following evaluation.
(§1) A larger value for the line width means higher sensitivity.

Data set [5] can be described thus: Average transmittance of composition. The data set is classed as physicochemical. The settings on record: photosensitive composition, quartz cell, optical path length 1 cm. The method, then: The average transmittance (%) of each of the photosensitive resin compositions obtained in Examples 1 to 9, Examples 2-1 to 2-10, and Comparative Examples 1 and 2 in the range of from 400 nm to 700 nm was measured with a spectrophotometer (manufactured by Hitachi High-Technologies Corporation, trade name: “U-3900H”, quartz cell, optical path length; 1 cm).

Data set [6] in a line: Transmittance of transparent cured film. The data set is classed as physicochemical. To be noted: cured at exposure energy quantity 80 mJ/cm^2. As for the experimental part: Transparent cured films were formed by using the photosensitive compositions obtained in Examples 1 to 9, Examples 2-1 to 2-10, and Comparative Examples 1 and 2 in the same manner as in the evaluation 1 except that the exposure energy quantity was set to 80 mJ/cm^2. The transmittance (%) of each of the resultant transparent cured films at 400 nm and the average transmittance (%) thereof in the range of from 400 to 700 nm were measured with a spectrophotometer (manufactured by Hitachi High-Technologies Corporation, trade name: “U-3900H”, quartz cell, optical path length; 1 cm). A higher transmittance at 400 nm means less coloring with a yellow color. In addition, a higher transmittance of a coating film means a higher transmitting property of a pattern to be formed.

Data set [7] can be described thus: Evaluation 3: 20-μm pattern line width of black photosensitive composition. The settings on record: black composition (carbon black, cardo resin), initiator 0.4 mmol.
Description: The mixture was filtered with a membrane filter having an aperture of 5 μm to provide a photosensitive composition.
Photosensitive compositions were each obtained in the same manner as in Example 10 except that the used fluorene-based compound and its usage were changed as shown in Table 5.
Each of the photosensitive compositions obtained in Examples 10 to 15, Examples 2-11 to 2-20, and Comparative Example 3 was applied onto a glass substrate with a spin coater (manufactured by Kyowariken Co., Ltd., trade name: “K-359SD1”) so that its thickness after drying became 1.0 μm. The glass substrate after the application was dried with a fan dryer at 90° C. for 10 minutes. Thus, a coating film (photosensitive layer) was formed. Next, the film was exposed to light having an exposure energy quantity of 10 mJ/cm^2, 20 mJ/cm^2, 40 mJ/cm^2, 60 mJ/cm^2, or 80 mJ/cm^2 by using a high-pressure mercury lamp (manufactured by Karl Suss, trade name: “MASK ALIGNER”) through a negative mask (mask width: 20 μm). Next, the resultant was immersed in a 0.1 wt % aqueous solution of tetra methyl ammonium hydroxide (TMAH) and then rinsed with pure water. The remaining cured film was subjected to the following evaluation. In addition, FIGS. 2, 3, and 6 show microscope photographs of black cured films obtained by using the photosensitive compositions of Examples 10 and 11, and Comparative Example 3, and FIGS. 7 to 11 show microscope photographs of black cured films obtained by using the photosensitive compositions of Examples 2-11, 2-13, 2-14, 2-17, and 2-18.
as §1

Where [8] appears, read: exposure energy quantity 20 mJ/cm^2.
[9] abbreviates: exposure energy quantity 40 mJ/cm^2.
Setting [10] is: exposure energy quantity 60 mJ/cm^2.
Where [11] appears, read: exposure energy quantity 80 mJ/cm^2.
[12] abbreviates: exposure energy quantity 10 mJ/cm^2.

Take `CCn1c2ccc(C(=O)c3ccccc3C)cc2c2cc(/C(C)=N/OC(C)=O)ccc21` [Compound C-1, reference compound]: in data set [1], the “Λ max (absorption maximum wavelength)” value stood at 298.5 nm. The “Absorption coefficient at 365 nm” value in data set [1] was 4.4 mL/mg/cm. The “Absorption coefficient at Λ max” value in data set [1] worked out at 94.4 mL/mg/cm. The compound also yielded a Decomposition point in data set [2] of 216.4 °C. The “Solubility Ethyl lactate” value in data set [3] is recorded as “C (An amount in the range of from 2 parts by weight or more to less than 5 parts by weight of the photopolymerization initiator is dissolved.)”. Besides, in data set [3], the “Solubility PGMEA” value is “B (An amount in the range of from 5 parts by weight or more to less than 10 parts by weight of the photopolymerization initiator is dissolved.)”. The “Solubility PGME” value in data set [3] was “B (An amount in the range of from 5 parts by weight or more to less than 10 parts by weight of the photopolymerization initiator is dissolved.)”. For the same compound, the “20-μm pattern line width” value is 20.4 in data set [4] (setting [8]); 22.1 in data set [4] (setting [9]); 22.3 in data set [4] (setting [10]); 22.4 in data set [4] (setting [11]); 18.5 in data set [7] (10 mJ/cm^2); 19.0 in data set [7] (20 mJ/cm^2). Moreover, the entries for the “20-μm pattern line width” value in data set [7] (40 mJ/cm^2), in data set [7] (60 mJ/cm^2) and in data set [7] (80 mJ/cm^2) were 20.0, 20.9 and 21.2, respectively. In addition, the “Average transmittance (700 nm to 400 nm) Solution” value in data set [5] was 94.2%. In addition, the “Average transmittance (700 nm to 400 nm) Transparent cured film” value in data set [6] is 99.8%. In data set [6], the “Transmittance (400 nm) Transparent cured film” value worked out at 98.9%.

With `CCn1c2ccc(/C(=N\OC(C)=O)c3ccc(OC(C)COC)cc3C)cc2c2cc([N+](=O)[O-])ccc21` (stereo not shown) [Compound C-2, reference compound], in data set [1], the “Λ max (absorption maximum wavelength)” value came to 369.0 nm, the “Absorption coefficient at 365 nm” value is 26.8 mL/mg/cm and the “Absorption coefficient at Λ max” value worked out at 27.2 mL/mg/cm. In data set [2], this compound registered a Decomposition point of 264.0 °C. In data set [3], the “Solubility Ethyl lactate” value is on record as “C (An amount in the range of from 2 parts by weight or more to less than 5 parts by weight of the photopolymerization initiator is dissolved.)”, the “Solubility PGMEA” value was “B (An amount in the range of from 5 parts by weight or more to less than 10 parts by weight of the photopolymerization initiator is dissolved.)” and the “Solubility PGME” value is listed as “C (An amount in the range of from 2 parts by weight or more to less than 5 parts by weight of the photopolymerization initiator is dissolved.)”. Besides, the “20-μm pattern line width” value in data set [4] (setting [12]) came out at 21.3. Moreover, in data set [4] (setting [8]), the “20-μm pattern line width” value is 22.3. In addition, the “20-μm pattern line width” value in data set [4] (setting [9]) is reported as 23.6. Besides, in data set [4] (setting [10]), the “20-μm pattern line width” value is listed as 23.5. Further, the “20-μm pattern line width” value in data set [4] (setting [11]) came to 24.0. In addition, in data set [5], the “Average transmittance (700 nm to 400 nm) Solution” value is 75.9%. Besides, in data set [6], the “Average transmittance (700 nm to 400 nm) Transparent cured film” value turned out to be 95.1% and the “Transmittance (400 nm) Transparent cured film” value is recorded as 72.7%.

Consider `CCCC1(CCC)c2cc(C(=NOC(C)=O)c3ccccc3)ccc2-c2ccc([N+](=O)[O-])cc21` [Compound D-1], for which the “Λ max (absorption maximum wavelength)” value in data set [1] stood at 343.5 nm. The “Absorption coefficient at 365 nm” value in data set [1] was 33.2 mL/mg/cm. Further, the “Absorption coefficient at Λ max” value in data set [1] is 54.1 mL/mg/cm. In data set [2], this compound had a Decomposition point of 273.4 °C. Also, the “Solubility Ethyl lactate” value in data set [3] is listed as “D (Less than 2 parts by weight of the photopolymerization initiator is dissolved.)”. Moreover, the “Solubility PGMEA” value in data set [3] is on record as “C (An amount in the range of from 2 parts by weight or more to less than 5 parts by weight of the photopolymerization initiator is dissolved.)”. In addition, the “Solubility PGME” value in data set [3] is “D (Less than 2 parts by weight of the photopolymerization initiator is dissolved.)”. For the same compound, the “sensitivity to the active energy ray (in words)” value in data set [4] (photopolymerization initiator containing the compound) is reported as “additionally high sensitivity to the active energy ray”. Moreover, the “20-μm pattern line width” value in data set [4] (setting [12]) is 20.2; in data set [4] (setting [8]), 20.9; in data set [4] (setting [9]), 22.4; in data set [4] (setting [10]), 22.8; in data set [4] (setting [11]), 23.1; in data set [7] (10 mJ/cm^2), 19.4. Also, the “20-μm pattern line width” value is reported as 20.4 in data set [7] (20 mJ/cm^2), 21.9 in data set [7] (40 mJ/cm^2), 22.3 in data set [7] (60 mJ/cm^2) and 23.1 in data set [7] (80 mJ/cm^2). In addition, the “Average transmittance (700 nm to 400 nm) Solution” value in data set [5] was determined as 57.5%. Moreover, the “Average transmittance (700 nm to 400 nm) Transparent cured film” value in data set [6] was found to be 99.2%. In addition, the “Transmittance (400 nm) Transparent cured film” value in data set [6] is recorded as 91.7%.
